Measurements published in patent US20110118350A1, “COMPOSITION FOR PREVENTING CARDIOVASCULAR EVENT IN HIGH-RISK PATIENT” (MOCHIDA PHARMACEUTICAL CO., LTD., priority 2008, published 2011).

Experiment: Incidence of cardiovascular events for 5 years from the start of administration (DELIS partial analysis)
Type: in vivo, human
Conditions: for Ratio of incidence reduction (%): EPA-E vs control group; for Incidence (%) of cardiovascular events / Number of cardiovascular events: 5 years
From the text: This trial corresponds to a partial analysis of the results obtained in DELIS (Japan EPA Lipid Intervention Study) which is a large scale clinical trial of high purity EPA preparation which was presented in the American College of Cardiology 2005 Annual Meeting (for general information on DELIS, see Lancet, vol. 369, pp. 1090-1098 (2007)). More specifically, of 18,645 subject patients of the DELIS trial (EPA group (9,326 cases) and control group (9,319 cases)), 15534 cases (sum of the control group and EPA group) were analyzed for the composition of plasma fatty acids and divided based on the average of the plasma OA/SA ratio during the whole observation period into three groups (i.e., a group having an OA/SA ratio of less than 2.6, a group having an OA/SA ratio of at least 2.6 but less than 3.0, and a group having an OA/SA ratio of at least 3.0) so that the three groups were approximately equal in number, and the groups were compared for the incidence of cardiovascular events for 5 years from the start of administration. The EPA group was orally administered with Epadel (EPA-E available from Mochida Pharmaceutical Co., Ltd.) typically at an adult dose of 600 mg per administration and 3 times a day immediately after the meal. However, in the case of abnormal serum TG, the dose could be increased to 900 mg per administration and 3 times a day depending on the degree of abnormality. In both groups, pravastatin sodium (Mevalotin™ tablets and fine granules, Daiichi Sankyo Co., Ltd.), simvastatin (Lipovas™ tablets, Banyu Pharmaceutical Co., Ltd.), or atorvastatin calcium hydrate (Lipitor™ tablets, Astellas Pharma Inc. and Pfizer Inc.) was used for the base drug, and these drugs were orally administered according to the prescribed dosage regimen. This trial corresponds to a partial analysis of the results obtained in DELIS as in Example 1. More specifically, primary prevention cases combined with secondary prevention cases, only primary prevention cases, and only secondary prevention cases were respectively divided into four groups based on the plasma OA level or the plasma SA level at the start of administration so that the four groups were approximately equal in number. The groups were compared for the incidence of cardiovascular events for 5 years from the start of administration.

[1] = primary + secondary prevention cases, Total (oleic acid grouping)
[2] = primary + secondary prevention cases, Total (stearic acid grouping)
[3] = primary + secondary prevention cases, oleic acid at start 22.1< mol %
[4] = primary + secondary prevention cases, oleic acid at start >18.2-20.1 mol %
[5] = primary + secondary prevention cases, oleic acid at start >20.1-22.1 mol %
[6] = primary + secondary prevention cases, oleic acid at start −18.2 mol %
[7] = primary + secondary prevention cases, stearic acid at start 7.35< mol %
[8] = primary + secondary prevention cases, stearic acid at start >6.46-6.89 mol %
[9] = primary + secondary prevention cases, stearic acid at start >6.89-7.35 mol %
[10] = primary + secondary prevention cases, stearic acid at start −6.46 mol %
[11] = primary prevention cases, Total (oleic acid grouping)
[12] = primary prevention cases, Total (stearic acid grouping)
[13] = primary prevention cases, oleic acid at start 21.9< mol %
[14] = primary prevention cases, oleic acid at start >18.1-19.9 mol %
[15] = primary prevention cases, oleic acid at start >19.9-21.9 mol %
[16] = primary prevention cases, oleic acid at start −18.1 mol %
[17] = primary prevention cases, stearic acid at start 7.33< mol %
[18] = primary prevention cases, stearic acid at start >6.46-6.89 mol %
[19] = primary prevention cases, stearic acid at start >6.89-7.33 mol %
[20] = primary prevention cases, stearic acid at start −6.46 mol %
[21] = secondary prevention cases, Total (oleic acid grouping)
[22] = secondary prevention cases, Total (stearic acid grouping)
[23] = secondary prevention cases, oleic acid at start 22.1< mol %
[24] = secondary prevention cases, oleic acid at start >18.2-20.1 mol %
[25] = secondary prevention cases, oleic acid at start >20.1-22.1 mol %
[26] = secondary prevention cases, oleic acid at start −18.2 mol %
[27] = secondary prevention cases, stearic acid at start 7.38< mol %
[28] = secondary prevention cases, stearic acid at start >6.46-6.90 mol %
[29] = secondary prevention cases, stearic acid at start >6.90-7.38 mol %
[30] = secondary prevention cases, stearic acid at start −6.46 mol %

SMILES: CC/C=C\C/C=C\C/C=C\C/C=C\C/C=C\CCCC(=O)OCC [EPA-E, ethyl icosapentate]
- Ratio of incidence reduction (%) [1]: 13.2%
- Ratio of incidence reduction (%) [2]: 13.2%
- Ratio of incidence reduction (%) [3]: 30.3%
- Ratio of incidence reduction (%) [4]: 14.6%
- Ratio of incidence reduction (%) [5]: −2.0%
- Ratio of incidence reduction (%) [6]: −5.3%
- Ratio of incidence reduction (%) [7]: 39.5%
- Ratio of incidence reduction (%) [8]: −13.9%
- Ratio of incidence reduction (%) [9]: 26.6%
- Ratio of incidence reduction (%) [10]: 1.8%
- Ratio of incidence reduction (%) [11]: 11.1%
- Ratio of incidence reduction (%) [12]: 11.1%
- Ratio of incidence reduction (%) [13]: 30.4%
- Ratio of incidence reduction (%) [14]: 26.1%
- Ratio of incidence reduction (%) [15]: −20.6%
- Ratio of incidence reduction (%) [16]: −12.2%
- Ratio of incidence reduction (%) [17]: 17.0%
- Ratio of incidence reduction (%) [18]: −17.3%
- Ratio of incidence reduction (%) [19]: 19.5%
- Ratio of incidence reduction (%) [20]: 22.0%
- Ratio of incidence reduction (%) [21]: 15.5%
- Ratio of incidence reduction (%) [22]: 15.5%
- Ratio of incidence reduction (%) [23]: 40.8%
- Ratio of incidence reduction (%) [24]: −3.4%
- Ratio of incidence reduction (%) [25]: 8.1%
- Ratio of incidence reduction (%) [26]: 3.0%
- Ratio of incidence reduction (%) [27]: 65.2%
- Ratio of incidence reduction (%) [28]: −19.9%
- Ratio of incidence reduction (%) [29]: 38.7%
- Ratio of incidence reduction (%) [30]: −26.0%
- effect on incidence and/or rate of recurrence of cardiovascular events (patients with an OA level exceeding 22.1 mol % or an SA level exceeding 7.38 mol %): reduced incidence and/or rate of recurrence of cardiovascular events
- Incidence (%) of cardiovascular events [1]: 3.8%
- Number of cardiovascular events [1]: 266
- Incidence (%) of cardiovascular events [2]: 3.8%
- Number of cardiovascular events [2]: 266
- Incidence (%) of cardiovascular events [3]: 4.7%
- Number of cardiovascular events [3]: 77
- Incidence (%) of cardiovascular events [4]: 3.1%
- Number of cardiovascular events [4]: 55
- Incidence (%) of cardiovascular events [5]: 4.4%
- Number of cardiovascular events [5]: 76
- Incidence (%) of cardiovascular events [6]: 3.3%
- Number of cardiovascular events [6]: 58
- Incidence (%) of cardiovascular events [7]: 2.5%
- Number of cardiovascular events [7]: 44
- Incidence (%) of cardiovascular events [8]: 4.9%
- Number of cardiovascular events [8]: 81
- Incidence (%) of cardiovascular events [9]: 3.2%
- Number of cardiovascular events [9]: 56
- Incidence (%) of cardiovascular events [10]: 4.8%
- Number of cardiovascular events [10]: 85
- Incidence (%) of cardiovascular events [11]: 2.5%
- Number of cardiovascular events [11]: 140
- Incidence (%) of cardiovascular events [12]: 2.5%
- Number of cardiovascular events [12]: 140
- Incidence (%) of cardiovascular events [13]: 2.8%
- Number of cardiovascular events [13]: 40
- Incidence (%) of cardiovascular events [14]: 1.9%
- Number of cardiovascular events [14]: 27
- Incidence (%) of cardiovascular events [15]: 3.2%
- Number of cardiovascular events [15]: 46
- Incidence (%) of cardiovascular events [16]: 1.8%
- Number of cardiovascular events [16]: 27
- Incidence (%) of cardiovascular events [17]: 1.9%
- Number of cardiovascular events [17]: 27
- Incidence (%) of cardiovascular events [18]: 3.1%
- Number of cardiovascular events [18]: 43
- Incidence (%) of cardiovascular events [19]: 2.4%
- Number of cardiovascular events [19]: 34
- Incidence (%) of cardiovascular events [20]: 2.4%
- Number of cardiovascular events [20]: 36
- Incidence (%) of cardiovascular events [21]: 10.2%
- Number of cardiovascular events [21]: 126
- Incidence (%) of cardiovascular events [22]: 10.2%
- Number of cardiovascular events [22]: 126
- Incidence (%) of cardiovascular events [23]: 9.5%
- Number of cardiovascular events [23]: 27
- Incidence (%) of cardiovascular events [24]: 8.7%
- Number of cardiovascular events [24]: 28
- Incidence (%) of cardiovascular events [25]: 11.5%
- Number of cardiovascular events [25]: 37
- Incidence (%) of cardiovascular events [26]: 11.2%
- Number of cardiovascular events [26]: 34
- Incidence (%) of cardiovascular events [27]: 4.3%
- Number of cardiovascular events [27]: 14
- Incidence (%) of cardiovascular events [28]: 14.2%
- Number of cardiovascular events [28]: 41
- Incidence (%) of cardiovascular events [29]: 6.9%
- Number of cardiovascular events [29]: 22
- Incidence (%) of cardiovascular events [30]: 16.4%
- Number of cardiovascular events [30]: 49
